According to patent publication US5889020A, “Treatment of normotensive glaucoma with angiotensin II antagonists” (CIBA Vision Corporation, priority 1994, dated 1999):

Key:
ciliary artery = assay: Ciliary artery contraction, myograph method (tissue ring contracted with angiotensin II); set-up: species or system pig
Excerpt: For the myographic determinations, a short segment (7-8 mm) of the ciliary arteries of fresh eyes, e.g. pig's eyes, is dissected and cut into small rings of thickness 2 mm under a microscope (cf. for this K. Yao et al. Invest. Ophthalmaol. Vis. Sci. 32, 1791-1798(1991) and M. J. Mulvany, W. Halpern Circ. res. 41, 19-26(1977)). During the preparation, the tissue is immersed in modified Krebs-Ringer bicarbonate solution. These rings (diameter about 200-400 μm) are installed in the myograph system without delay. Such a tissue ring is stretched using two tungsten wires (diameters 30 and 80 μm), the wires being passed through the lumen. One wire is connected to the power transmission, the other to a micromanipulator for adjustment of muscle length. The tissue ring is immersed in a control solution during the experiment (37°; 95% O2; 5% CO2; pH=7.4) and equilibrated for 45 minutes before testing.
The tissue ring is stretched stepwise and at the same time 100 mM KCl is added in each case. The optimum passive tension is then defined as the tension at which the contraction with 100 mM KCl is greatest. For ciliary arteries, an averaged value for the tension of 977 mg±60 mg is found. The active residual tone of this tissue is defmed as the difference between the optimum passive tension and the tension after a maximum relaxation with 10^-6 molar bradykinin. The corresponding tension is 174 mg±38 mg. In all subsequent experiments, the abovementioned tissue rings are slowly stretched at 100 mg intervals until the optimum is reached.
Before the actual experiment, the endothelial function of such a tissue ring is checked for intactness. The tissue rings are challenged to contract by using 3. 10^-7 molar serotonin solution and in the experimental procedure described above. Thereafter it is checked whether a complete relaxation of the contracted tissue ring occurs with 3. 10^-7 molar bradykinin solution. If this condition is fulfilled, the tissue is held to be intact.
Determination of the ciliary artery contraction using the myograph method
After it was verified as described above that the endothelial functions of a tissue ring of a ciliary artery are intact, the tissue ring preparation is incubated (contracted) with 10^-7 M angiotensin II, and then relaxed with various doses of the angiotensin II antagonist valsartan.

[1] = system: perfused isolated pig's eye; assay: Ophthalmic flow in the perfused isolated pig's eye
Experimental: For the perfusion method on the isolated pig's eye, the fatty tissue which surrounds the extraocular muscles is carefully removed. During this preparation, the ocular globe is surrounded with modified Krebs-Ringer bicarbonate solution at 4° C. The ocular globe is then cannulated under the microscope using a polyethylene cannula (600 μm diameter), namely via the common ophthalmic artery.
Following this preparation, the ocular globe is connected via the polyethylene cannula to a Langendorff perfusion system, and in this way supplied at the latest 1 hour after the start of preparation with a filtered and oxygenated Krebs solution which contains 0.5% albumin.
The catheterization of the common ophthalmic artery guarantees the complete perfusion both of the choroidal and of the retinal tissue and of the small extraocular muscular arteries. The perfused ocular globe is immersed in a thermostated (37° C.) control bath with a glass jacket with the cornea pointed downwards. The overflow rate (ml/min) in the bath corresponds to the ophthalmic flow. Before testing a composition, the ocular globe is equilibrated for 20 minutes. In a control experiment, it is shown that the ophthalmic flow in the experimental procedure selected remains constant for about 120 minutes after the start of the perfusion. All tests are therefore carried out within this time frame.
A perfused isolated pig's eye is first treated as described above with a control solution and then with a solution comprising angiotensin II (10^-6 M). After the determination of the angiotensin II effect, valsartan (10^-5 M) is additionally added on top of the above exposure. The relative ophthalmic flow rate resulting in this way is shown below.

Molecule	Relative contraction in comparison to 100 mM KCl (ciliary artery; 10^-7 M angiotensin II alone, no valsartan (pure angiotensin II effect)) [%]	Decrease in the relative ophthalmic flow ([1]; angiotensin II 10^-6 M alone) [%]	Relative contraction in comparison to 100 mM KCl (ciliary artery; ciliary artery ring contracted with 10^-7 M angiotensin II, valsartan 10^-5 M) [%]	Relative contraction in comparison to 100 mM KCl (ciliary artery; ciliary artery ring contracted with 10^-7 M angiotensin II, valsartan 10^-6 M) [%]	Relative contraction in comparison to 100 mM KCl (ciliary artery; ciliary artery ring contracted with 10^-7 M angiotensin II, valsartan 10^-7 M) [%]	Relative contraction in comparison to 100 mM KCl (ciliary artery; ciliary artery ring contracted with 10^-7 M angiotensin II, valsartan 10^-8 M) [%]	Relative contraction in comparison to 100 mM KCl (ciliary artery; ciliary artery ring contracted with 10^-7 M angiotensin II, valsartan 10^-9 M) [%]	Contracting effect of angiotensin II on the ciliary artery (ciliary artery; valsartan added after 10^-7 M angiotensin II)	Decrease in the relative ophthalmic flow ([1]; angiotensin II 10^-6 M plus valsartan 10^-5 M) [%]	Blood flow-decreasing action of angiotensin II ([1]; valsartan 10^-5 M on top of angiotensin II 10^-6 M)
Angiotensin II: contracting agonist used to contract the ciliary artery and decrease ophthalmic flow (DRVYIHPF; Angiotensin-2; UniProt P01019 25-32, looked up)	27.9 ± 8.7	24.5 ± 3.05								
CCCCC(=O)N(Cc1ccc(-c2ccccc2-c2nn[nH]n2)cc1)[C@H](C(=O)O)C(C)C [valsartan]			0.9 ± 0.45	0.93 ± 0.4	5.15 ± 1.6	8.1 ± 1.5	18.7 ± 2.2	quantitatively abolished	6.82 ± 3.02	strongly reduced
